Patent US11304964B2, “Bolaamphiphilic compounds, compositions and uses thereof” (priority 2012, dated 2022)

Experiments:
[1] = human subjects treated orally with 300 mg tenofovir; cited from earlier work
[2] = Tenofovir encapsulation in bolaamphiphile vesicles (UV absorbance after Sephadex G50 separation); format: physicochemical
Procedure: Bolaamphiphiles, cholesterol, and CHMES (2:1:1 mole ratio) are dissolved in chloroform or a suitable solvent. […] The solvents are evaporated under vacuum and the resultant thin films are hydrated in 0.2 mg/mL CF solution in PBS and probe-sonicated (Vibra-Cell VCX130 sonicator, Sonics and Materials Inc., Newtown, Conn., USA) with amplitude 20%, pulse on: 15 sec, pulse off: 10 sec to achieve homogenous vesicle dispersions. Vesicle size and zeta potential were determined using a Zetasizer Nano ZS (Malvern Instruments, UK).
Methods were established to determine quantitatively the amount of the encapsulated tenofovir based on a UV absorption and determined the percent of tenofovir encapsulation by various vesicle formulations (data not shown). […] One objective of this work was to achieve the maximum amount of tenofovir encapsulated per vesicle along with a minimum loss of the non-encapsulated drug. Accordingly, several parameters were examined, such as varying the ratio among the vesicle components, changing the ratio of tenofovir to bolaamphiphiles, varying the pH of the hydration solution and also adding to the formulation additional additives, in the attempt to increase the encapsulation capacity of the vesicles.
In particular, in order to maximize tenofovir encapsulation the following parameters were studied: (1) tenofovir to GLH ratio; (2) adjusting the concentrations of cholestyrl hemisuccinate (CHEM) and cholesterol (CHOL), components that are used in the vesicle formulation, (3) examining several buffers and pHs in the encapsulation process, (4) time of sonication, and (5) tenofovir concentration, and (6) addition of stearyl amine to the vesicle formulation to enhance encapsulation by complexation with tenofovir.
The vesicles were prepared from formulations with and without SA and the non-encapsulated tenofovir (free tenofovir) was separated from the encapsulated tenofovir on Sephadex G50 column and the absorbance at 260 nm of each fraction collected from the column was read.

[3] = HEPES pH 7.5, GLH 19/20 (2:1) 10 mg/ml, SA 1.25 mg/ml, tenofovir 5 mg/ml, standard CHOL/CHEMS
[4] = HEPES pH 7.5, GLH 19/20 (2:1) 10 mg/ml, SA 2.5 mg/ml, tenofovir 5 mg/ml, standard CHOL/CHEMS
[5] = HEPES pH 7.5, GLH 19/20 (2:1) 10 mg/ml, SA 3.5 mg/ml, tenofovir 5 mg/ml, standard CHOL/CHEMS
[6] = HEPES pH 7.5, GLH 19/20 (2:1) 10 mg/ml, tenofovir 1 mg/ml, standard CHOL/CHEMS
[7] = HEPES pH 7.5, GLH 19/20 (2:1) 10 mg/ml, tenofovir 2 mg/ml, ½ the standard amount of cholesterol and cholesteryl hemisuccinate
[8] = HEPES pH 7.5, GLH 19/20 (2:1) 15 mg/ml, SA 2.5 mg/ml, tenofovir 5 mg/ml, standard CHOL/CHEMS
[9] = HEPES pH 7.5, GLH 19/20 (2:1) 15 mg/ml, tenofovir 1 mg/ml, standard CHOL/CHEMS
[10] = HEPES pH 7.5, GLH 19/20 (2:1) 15 mg/ml, tenofovir 2 mg/ml, ½ the standard amount of cholesterol and cholesteryl hemisuccinate
[11] = HEPES pH 8, GLH 19/20 (2:1) 15 mg/ml, SA 2.5 mg/ml, tenofovir 5 mg/ml, standard CHOL/CHEMS
[12] = HEPES pH 8, GLH 19/20 (2:1) 15 mg/ml, tenofovir 1 mg/ml, standard CHOL/CHEMS
[13] = TRIS pH 8, GLH 19/20 (2:1) 10 mg/ml, SA 2.5 mg/ml, tenofovir 5 mg/ml, standard CHOL/CHEMS
[14] = TRIS pH 8, GLH 19/20 (2:1) 10 mg/ml, tenofovir 1 mg/ml, standard CHOL/CHEMS
[15] = TRIS pH 8, GLH 19/20 (2:1) 10 mg/ml, tenofovir 2 mg/ml, standard CHOL/CHEMS
[16] = TRIS pH 8, GLH 19/20 (2:1) 10 mg/ml, tenofovir 5 mg/ml, standard CHOL/CHEMS
[17] = TRIS pH 8, GLH 19/20 (2:1) 20 mg/ml, tenofovir 5 mg/ml, standard CHOL/CHEMS

C[C@H](Cn1cnc2c(N)ncnc21)OCP(=O)(O)O [tenofovir, ({[(2R)-1-(6-amino-9H-purin-9-yl)propan-2-yl]oxy}methyl)phosphonic acid]
blood concentration of tenofovir [1]: about 500 ng/ml
% tenofovir encapsulation [2, 3]: 15.9%
Ratio of tenofovir encapsulated to bolaamphiphiles [2, 3]: 0.062 mg/mg
% tenofovir encapsulation [2, 4]: 21.4%
Ratio of tenofovir encapsulated to bolaamphiphiles [2, 4]: 0.107 mg/mg
% tenofovir encapsulation ([2]; HEPES pH 7.5, GLH 19/20 (2:1) 10 mg/ml, SA 2.5 mg/ml, tenofovir 5 mg/ml, ½ the standard amount of cholesterol and cholesteryl hemisuccinate): **22%
% tenofovir encapsulation [2, 5]: 30.9%
Ratio of tenofovir encapsulated to bolaamphiphiles [2, 5]: 0.155 mg/mg
% tenofovir encapsulation [2, 6]: 17.4%
mg tenofovir encapsulated/mg bola [2, 6]: 0.026 mg tenofovir encapsulated/mg bola
mg tenofovir encapsulated/mg bola ([2]; HEPES pH 7.5, GLH 19/20 (2:1) 10 mg/ml, tenofovir 2 mg/ml, standard CHOL/CHEMS): 0.024 mg tenofovir encapsulated/mg bola
% tenofovir encapsulation [2, 7]: **16.5%
mg tenofovir encapsulated/mg bola [2, 7]: **0.033 mg tenofovir encapsulated/mg bola
% tenofovir encapsulation ([2]; HEPES pH 7.5, GLH 19/20 (2:1) 10 mg/ml, tenofovir 5 mg/ml, standard CHOL/CHEMS): 7.8%
% tenofovir encapsulation ([2]; HEPES pH 7.5, GLH 19/20 (2:1) 10 mg/ml, tenofovir 7.5 mg/ml, standard CHOL/CHEMS): 3.8%
% tenofovir encapsulation [2, 8]: 18.6%
Ratio of tenofovir encapsulated to bolaamphiphiles [2, 8]: 0.08 mg/mg
% tenofovir encapsulation [2, 9]: 38.6%
mg tenofovir encapsulated/mg bola [2, 9]: 0.026 mg tenofovir encapsulated/mg bola
% tenofovir encapsulation ([2]; HEPES pH 7.5, GLH 19/20 (2:1) 15 mg/ml, tenofovir 2 mg/ml, standard CHOL/CHEMS): 18.4, %
% tenofovir encapsulation [2, 10]: **22.5%
mg tenofovir encapsulated/mg bola [2, 10]: **0.033 mg tenofovir encapsulated/mg bola
% tenofovir encapsulation [2, 11]: 23%
Ratio of tenofovir encapsulated to bolaamphiphiles [2, 11]: 0.077 mg/mg
% tenofovir encapsulation [2, 12]: 31.2%
mg tenofovir encapsulated/mg bola [2, 12]: 0.021 mg tenofovir encapsulated/mg bola
% tenofovir encapsulation ([2]; TRIS pH 8, GLH 19/20 (2:1) 5 mg/ml, tenofovir 1 mg/ml in hydration solution, standard CHOL/CHEMS): 4%
mg tenofovir encapsulated/mg bola ([2]; TRIS pH 8, GLH 19/20 (2:1) 5 mg/ml, tenofovir 1 mg/ml, standard CHOL/CHEMS): 0.008 mg tenofovir encapsulated/mg bola
% tenofovir encapsulation [2, 13]: 12.7%
Ratio of tenofovir encapsulated to bolaamphiphiles [2, 13]: 0.064 mg/mg
% tenofovir encapsulation [2, 14]: 11%
mg tenofovir encapsulated/mg bola [2, 14]: 0.011 mg tenofovir encapsulated/mg bola
% tenofovir encapsulation [2, 15]: 9%
mg tenofovir encapsulated/mg bola [2, 15]: 0.018 mg tenofovir encapsulated/mg bola
% tenofovir encapsulation [2, 16]: 6%
mg tenofovir encapsulated/mg bola [2, 16]: 0.03 mg tenofovir encapsulated/mg bola
mg tenofovir encapsulated/mg bola ([2]; TRIS pH 8, GLH 19/20 (2:1) 15 mg/ml, tenofovir 1 mg/ml, standard CHOL/CHEMS): 0.016 mg tenofovir encapsulated/mg bola
% tenofovir encapsulation ([2]; TRIS pH 8, GLH 19/20 (2:1) 15 mg/ml, tenofovir 1 mg/ml, standard CHOL/CHEMS, ±SEM): 24.5 ± 2.1%
mg tenofovir encapsulated/mg bola ([2]; TRIS pH 8, GLH 19/20 (2:1) 15 mg/ml, tenofovir 2 mg/ml, standard CHOL/CHEMS): 0.03 mg tenofovir encapsulated/mg bola
% tenofovir encapsulation ([2]; TRIS pH 8, GLH 19/20 (2:1) 15 mg/ml, tenofovir 2 mg/ml, standard CHOL/CHEMS, ±SEM): 21 ± 2.1%
mg tenofovir encapsulated/mg bola ([2]; TRIS pH 8, GLH 19/20 (2:1) 15 mg/ml, tenofovir 5 mg/ml, standard CHOL/CHEMS): 0.03 mg tenofovir encapsulated/mg bola
% tenofovir encapsulation ([2]; TRIS pH 8, GLH 19/20 (2:1) 15 mg/ml, tenofovir 5 mg/ml, standard CHOL/CHEMS, ±SEM): 9 ± 1.4%
mg tenofovir encapsulated/mg bola ([2]; TRIS pH 8, GLH 19/20 (2:1) 20 mg/ml, tenofovir 1 mg/ml, standard CHOL/CHEMS): 0.02 mg tenofovir encapsulated/mg bola
% tenofovir encapsulation ([2]; TRIS pH 8, GLH 19/20 (2:1) 20 mg/ml, tenofovir 1 mg/ml, standard CHOL/CHEMS, ±SEM): 31.4 ± 4.5%
mg tenofovir encapsulated/mg bola ([2]; TRIS pH 8, GLH 19/20 (2:1) 20 mg/ml, tenofovir 2 mg/ml, standard CHOL/CHEMS): 0.022 mg tenofovir encapsulated/mg bola
% tenofovir encapsulation ([2]; TRIS pH 8, GLH 19/20 (2:1) 20 mg/ml, tenofovir 2 mg/ml, standard CHOL/CHEMS, ±SEM): 22.5 ± 3.5%
% tenofovir encapsulation [2, 17]: 9.3%
mg tenofovir encapsulated/mg bola [2, 17]: 0.023 mg tenofovir encapsulated/mg bola
% of the added tenofovir encapsulated ([2]; optimal formulation for PK: 10 mg GLH 19/20 2/1, 1 mg GLH-55b, 2.5 mg stearyl amine, 5 mg tenofovir per mL, HEPES): 20%
amount of the encapsulated tenofovir ([2]; optimal formulation used in first set of PK experiments): 1 mg/mL vesicles
percent of tenofovir encapsulation ([2]; various vesicle formulations, conditions that yielded maximum encapsulation (before optimization)): 18-20%
